Reference: US20070117794A1, “Methods of treatment using oxytocin receptor agonists” (Wyeth, priority 2005, published 2007)
“Also recorded” adds a separate entry of the source.

Key:
[1] = test system: Male Sprague-Dawley derived Rats; assay: Prepulse inhibition of the acoustic startle reflex (PPI), d-Amphetamine disrupted; assay type: in vivo, rat; conditions: for reversal of d-amphetamine induced disruption of PPI: i.p., 30 mins prior to test, hydrochloride
Description: (§1) Prepulse inhibition of the acoustic startle reflex (PPI) is an operational measure of sensorimotor gating that can be measured across many species. Deficits in PPI have been reported in patients with schizophrenia, leading to its use as a preclinical model of the disease. In rats, PPI is decreased in a manner homologous to that seen in schizophrenia following administration of certain psychotomimetic drugs (e.g. MK801; amphetamine). In our study we utilized MK801, a non-competitive NMDA antagonist and d-Amphetamine, a non-selective dopamine agonist.
(§2) Animals: Male Sprague-Dawley derived Rats (SD) weighing 200-250 g were group housed in standard bedding cages, allowed access to food and water ad libitum, and maintained on a 12-hour light dark cycle. All behavioral testing was performed during the light cycle. All studies were previously approved by the Institutional Animal Care and Use Committee, and performed in accordance to the Guide for the Care and Use of Laboratory Animals as adopted and promulgated by the National Institutes of Health.
(§3) Test Compounds: The oxytocin agonist cpd A was dissolved in a 1% Tween-80/1% DMSO/saline vehicle. MK801 (Sigma, St. Louis, Mo.) was dissolved in 2% Tween-80/saline. d-Amphetamine (Sigma, St. Louis, Mo.) was dissolved in saline.
(§4) Each testing chamber (SR-LAB system, San Diego Instruments) consisted of a Plexiglas cylinder (8.8 cm in diameter) mounted on a frame and held in position by four metal pins to a base unit. Movement of the rat within the cylinder was detected by a piezoelectric accelerometer attached below the frame. […] Presentation of acoustic pulse and prepulse stimuli were controlled by the SR-LAB software and interface system, which also digitized, rectified and recorded the responses from the accelerometer. Mean startle amplitude was determined by averaging 100, 1 ms readings taken from the beginning of the pulse stimulus onset. For calibration purposes, sound levels were measured with a Quest sound level meter, scale “A”, with the microphone placed inside the Plexiglas cylinder. […]

[2] = test system: Male Sprague-Dawley derived Rats; assay: Prepulse inhibition of the acoustic startle reflex (PPI), MK801 disrupted; assay type: in vivo, rat
Description: as §1, §2, §3, §4
Startle amplitude was defined as the mean value of pulse alone trials. To evaluate the effect of drug treatment on startle response, data from the pulse alone trials was analyzed using one-factor ANOVA with repeated measures (one-way randomized block design), followed by a least significant difference (LSD) post-hoc test (comparison was made to vehicle/disrupting agent control). […] Although data for gating at three different prepulse intensities was generated, an averaged gating score across all prepulse intensities was calculated and this was analyzed by one factor ANOVA with repeated measures (one-way randomized block design). […]

Male Swiss-Webster mice = assay: Four-Plate Test (FPT), punished crossings; assay type: in vivo, mouse; conditions: for reversal of the anxiolytic-like effect of cpd A / blockade of the anxiolytic-like effect of cpd A (in words): co-administered with cpd A 10 mg/kg; for blockade of the anxiolytic-like effect of cpd A (in words): cpd B 10-30 mg/kg
Protocol: as §2, with “Swiss-Webster mice” for “Sprague-Dawley derived Rats (SD)”, “18-24” for “200-250”, “were” for “were group”, “groups of 15 in hanging wire” for “standard bedding”
Test Compounds: Oxytocin (American Peptide Company, Sunnyvale, Calif.) was dissolved in a saline vehicle. The oxytocin agonist 4,-(3,5-Dihydroxy-benzyl)-piperazine-1-carboxylic acid 2-methyl-4-(3-methyl-4,10-dihydro-3H-2,3,4,9-tetra-aza-benzo[f]azulene-9-carbonyl)-benzylamide (hereinafter “cpd A”) and oxytocin antagonist 10-[(2-Methyl-2′-trifluoromethyl-[1,1′-biphenyl]-4-yl)carbonyl]-10,11-dihydro-5H-pyrrolo[2,1-c][1,4]benzodiazepine-3-carboxylic acid-bis-(2-hydroxy-ethyl)-amide (hereinafter “cpd B”) (Patent W/O 02/083680) were prepared and dissolved in a 1% Tween-80/1% DMSO/saline vehicle.
ICV injections: Mice were lightly anesthetized with halothane. Oxytocin was administered into either the left or right ventricle by visual location. A 26 gauge Hamilton syringe with 3 mm needle was used for injections and the injection site was visualized by locating the middle of the invisible line that runs diagonally from the left eye to the right ear. Test compounds were injected in a 2 μl total volume.
Four-Plate Test (FPT:) The four-plate apparatus consists of a Plexiglas chamber (18×25×16 cm) floored with four identical rectangular metal plates (8×11 cm), which are separated from one another by a gap of 4 mm and connected to a computerized device that can deliver electric shocks (0.8 mA, 0.5 sec) (Aron et al. Evaluation of a rapid technique for detecting minor tranquilizers, Neuropharmacology 10: 459-69 (1971)). In this test, mice are placed into the chamber and following a brief (18 seconds) habituation period, the animal's innate motivation to explore the novel environment is suppressed by the delivery of a mild foot shock every time the animal crosses any of the boundaries (gaps) while moving from one plate to another (referred to as a ‘punished crossing’). Following any punished crossing, there is a 3-second time out where the mouse may cross the electric plates without receiving another shock. An experimenter blind to the dosing conditions administers shocks, and a computer records the total number of punished crossings an animal makes during a 1-minute testing period. […] Pharmacol Biochem Behav 65: 339-44 (2000)). In all experiments, the testing procedure consisted of either a single injection or two injections followed by a test session 30 minutes later.
Statistical Analysis: One-way analysis of variance (ANOVA) was performed to determine effects of test compound treatments, followed by Least Significant Difference Tests for a post hoc analysis. All figures are shown with average ±SEM.

male rats = conditions: OT 1-4 ug/kg, s.c.; cited from earlier work
mouse = conditions: OT 3 mg/kg, i.p.; cited from earlier work
rats = conditions: cited from earlier work
OTR = biological target: T1, OTR (Homo sapiens, UniProt P30559); conditions: cited from earlier work
T1 sequence (P30559 1-389): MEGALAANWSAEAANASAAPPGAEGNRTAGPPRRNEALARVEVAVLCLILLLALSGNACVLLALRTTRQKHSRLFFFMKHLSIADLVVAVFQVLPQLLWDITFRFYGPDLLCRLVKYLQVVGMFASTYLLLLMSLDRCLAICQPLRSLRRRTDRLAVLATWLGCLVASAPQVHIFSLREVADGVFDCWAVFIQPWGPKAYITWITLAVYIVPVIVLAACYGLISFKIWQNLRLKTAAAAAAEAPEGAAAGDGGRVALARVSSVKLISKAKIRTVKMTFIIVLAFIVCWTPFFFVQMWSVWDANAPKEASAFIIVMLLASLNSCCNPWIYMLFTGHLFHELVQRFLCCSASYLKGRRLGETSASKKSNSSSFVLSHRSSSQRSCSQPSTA

rat = conditions: subcutaneous oxytocin; deficit induced by dizocilpine and amphetamine; cited from earlier work

## Cc1cc(C(=O)N2Cc3cnn(C)c3Nc3ccccc32)ccc1CNC(=O)N1CCN(Cc2cc(O)cc(O)c2)CC1.Cl [Cpd A (HCl salt), 4,-(3,5-Dihydroxy-benzyl)-piperazine-1-carboxylic acid 2-methyl-4-(3-methyl-4,10-dihydro-3H -2,3,4,9-tetra-aza-benzo[f]azulene-9-carbonyl)-benzylamide hydrochloride]
[1]; Cpd A (HCl salt) 10 mg/kg, 10 mg/kg
  reversal of d-amphetamine induced disruption of PPI: reversed d-amphetamine induced disruption at 5 dB and 10 dB; also recorded: reversed d-amphetamine—induced deficit at 5 dB and 10 dB
[1]; Cpd A (HCl salt) 30 mg/kg, 30 mg/kg
  reversal of d-amphetamine induced disruption of PPI: reversed the d-amphetamine induced disruption at 10 dB

## C[C@]12N[C@H](Cc3ccccc31)c1ccccc12 [MK801]
[2]; MK801 0.1 mg/kg s.c., 10 min prior to test, 5 dB, 10 dB & 15 dB prepulse, 0.1 mg/kg
  disruption of PPI: produced significant disruption in PPI across three prepulse intensities; also recorded: produced significant disruption across all three prepulse intensities
[2]; MK801 0.1 mg/kg s.c., 10 min prior to test, p >0.05
  startle alone: no effect on startle alone

## CC[C@H](C)[C@@H]1NC(=O)[C@H](Cc2ccc(O)cc2)NC(=O)[C@@H](N)CSSC[C@@H](C(=O)N2CCC[C@H]2C(=O)N[C@@H](CC(C)C)C(=O)NCC(N)=O)NC(=O)[C@H](CC(N)=O)NC(=O)[C@H](CCC(N)=O)NC1=O [Oxytocin]
Male Swiss-Webster mice; oxytocin 3 μg, icv, 30 minutes prior to testing, p<0.05
  increase in punished crossings from vehicle: 30%
Male Swiss-Webster mice; oxytocin 10 μg, icv, 30 minutes prior to testing, p<0.05
  increase in punished crossings from vehicle: 51%
Male Swiss-Webster mice; oxytocin 1-10 μg icv (b94 prints 1-10 mg), 30 minutes prior to testing
  punished crossings (effect in words): dose-dependent increase in punished crossings
[2]; oxytocin 0.04-1 mg/kg s.c., data not shown
  reversal of MK801 induced deficits in PPI: reversed the MK801 induced deficits in PPI in rats in a dose dependent manner
Male rats
  peripheral locomotor activity in the Open-Field model: decrease in peripheral locomotor activity
mouse
  activity in elevated-plus maze: anxiolytic-like activity
rats; OT 10-100 ng, i.c.v.
  open arm entries and time spent in the open arms of the elevated plus-maze: increases in open arm entries and time spent in the open arms
rats; pregnant or lactating rats, but not virgin rats
  activity in the elevated-plus maze: Anxiolytic activity
OTR
  selectivity for OT compared to AVP at the OTR: 10 fold
rat
  restoration of prepulse inhibition: dose-dependently restore prepulse inhibition

## Cc1cc(C(=O)N2Cc3ccc(C(=O)N(CCO)CCO)n3Cc3ccccc32)ccc1-c1ccccc1C(F)(F)F [cpd B, 10-[(2-Methyl-2′-trifluoromethyl-[1,1′-biphenyl]-4-yl)carbonyl]-10,11-dihydro-5H-pyrrolo[2,1-c][1,4]benzodiazepine-3-carboxylic acid-bis-(2-hydroxy-ethyl)-amide]
Male Swiss-Webster mice; cpd B 10 mg/kg, ip
  reversal of the anxiolytic-like effect of cpd A: 63%
Male Swiss-Webster mice; cpd B 30 mg/kg, ip, p<0.05
  reversal of the anxiolytic-like effect of cpd A: 100%
Male Swiss-Webster mice; ip
  blockade of the anxiolytic-like effect of cpd A (in words): blocked the anxiolytic-like effect of cpd A in a dose-dependent manner
Male Swiss-Webster mice; ip, listed as Cpd B
  blockade of the anxiolytic-like effect of cpd A (in words): dose-dependently blocks the anxiolytic-like effect of Cpd A
Male Swiss-Webster mice; cpd B administered alone
  punished crossings (effect in words): no effect on punished crossings

## C[C@H](N)Cc1ccccc1 [d-Amphetamine]
[1]; d-Amphetamine 4 mg/kg s.c., 10 min prior to test, 5 dB, 10 dB & 15 dB prepulse
  disruption of PPI: produced significant disruption across all three prepulse intensities

## Cc1cc(C(=O)N2Cc3cnn(C)c3Nc3ccccc32)ccc1CNC(=O)N1CCN(Cc2cc(O)cc(O)c2)CC1 [cpd A, 4,-(3,5-Dihydroxy-benzyl)-piperazine-1-carboxylic acid 2-methyl-4-(3-methyl-4,10-dihydro-3H-2,3,4,9-tetra-aza-benzo[f]azulene-9-carbonyl)-benzylamide]
Male Swiss-Webster mice; cpd A 10 mg/kg, ip, 30 minutes prior to testing, p<0.05
  increase in punished crossings from vehicle: 32%
Male Swiss-Webster mice; cpd A 10 mg/kg, ip, antagonist study (FIG. 3), p<0.05, 10 mg/kg
  punished crossings (effect in words): increases punished crossings; also recorded: increased punished crossings compared to vehicle
Male Swiss-Webster mice; cpd A 30 mg/kg, ip, 30 minutes prior to testing, p<0.05
  increase in punished crossings from vehicle: 25%
Male Swiss-Webster mice; cpd A 3-100 mg/kg, ip, 30 minutes prior to testing
  punished crossings (effect in words): increases the number of punished crossings; also recorded: significant overall effect on punished crossings
[2]; Cpd A 30 mg/kg i.p. (highest dose of 3-30 mg/kg), 30 mins prior to test
  reversal of MK801 induced deficits in PPI: reversed MK801 induced deficits in PPI at 10 dB & 15 dB levels; also recorded: reversed MK801 induced disruption at 10 dB and 15 dB
